Laboratory results reported in patent US5798442A, “Peptidyl derivatives as inhibitors of pro-apoptotic cysteine proteinases” (Merck Frosst Canada, Inc., priority 1995, dated 1998).
“Also recorded” adds a separate entry of the source.

Columns and labels:
apopain/CPP32 = molecular target: T1, apopain/CPP32 (Homo sapiens, UniProt P42574); assay: continuous fluorometric assay with Ac-DEVD-AMC and purified apopain; assay type: biochemical
T1 construct: cleavage between Asp^28 -Ser^29 and Asp^175 -Ser^176; cleavage sites which yield the p17 and p12 subunits from the CPP32 proenzyme; endogenous in cells; host or cells: THP-1 cells (ATCC TIB 202)
T1 sequence (P42574 29-175 limits assumed): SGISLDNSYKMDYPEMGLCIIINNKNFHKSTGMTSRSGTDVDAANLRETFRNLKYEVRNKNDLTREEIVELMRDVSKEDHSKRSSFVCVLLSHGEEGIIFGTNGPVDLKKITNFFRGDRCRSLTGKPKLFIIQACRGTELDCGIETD
T1 sequence (P42574 176-277 limits assumed): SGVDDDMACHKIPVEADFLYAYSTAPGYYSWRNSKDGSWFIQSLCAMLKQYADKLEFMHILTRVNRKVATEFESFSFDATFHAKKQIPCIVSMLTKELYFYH

intact cells = assay: activity in intact cells; assay type: cell-based
[1] = molecular target: T2, PARP cleavage activity in apoptotic osteosarcoma cell extracts (Homo sapiens, UniProt P42574); assay: [35S]PARP cleavage by cytosolic extracts of apoptotic osteosarcoma cells; assay type: biochemical; conditions: for IC50: apoptotic osteosarcoma cell extracts, [35S]PARP, read-out: IC50 for inhibition of PARP cleavage activity; for effect on proteolytic cleavage of PARP: FIG. 2a, 5 mM N-ethylmaleimide, 5 mM iodoacetamide, 10 μM E-64
T2 construct: 10 μg protein from the cytosol fraction of apoptotic osteosarcoma cells (from 7 day, post-confluent cultures); endogenous in cells; host or cells: human osteosarcoma cells 143.98.2 (ATCC CRL 11226), 7 day post-confluent (apoptotic), cytosol fraction
T2 sequence (P42574 29-175 limits assumed): T1 sequence (P42574 29-175 limits assumed)
T2 sequence (P42574 176-277 limits assumed): T1 sequence (P42574 176-277 limits assumed)

| Compound | IC50 [1] | effect on proteolytic cleavage of PARP [1] | further results |
| --- | --- | --- | --- |
| CC(=O)N[C@@H](CC(=O)O)C(=O)N[C@@H](CCC(=O)O)C(=O)N[C@H](C(=O)NC(C=O)CC(=O)O)C(C)C (stereo partly drawn) [Ac-DEVD-CHO, N-(N-Acetyl-L-aspartyl-L-glutamyl-L-valinyl)-3-amino-3-formylpropionic acid] |  |  | enzyme activity at infinite time (apopain/CPP32; 50 nM inhibitor, 1×Km Ac-DEVD-AMC): complete inhibition; also recorded: nearly complete suppression; activity in intact cells (intact cells): inactive; membrane permeability (intact cells): membrane impermeable |
| CC(=O)N[C@@H](CC(=O)O)C(=O)N[C@@H](CCC(=O)O)C(=O)N[C@H](C(=O)N[C@@H](CC(=O)O)C(=O)O)C(C)C [Ac-DEVD-COOH, N-Acetyl-aspartyl-glutamyl-valinyl-aspartic acid] | > 10 µM |  |  |
| CC(=O)N[C@@H](Cc1ccc(O)cc1)C(=O)N[C@H](C(=O)N[C@@H](C)C(=O)N[C@H](C=O)CC(=O)O)C(C)C [Ac-YVAD-CHO] | > 10 µM |  | Ki (apopain/CPP32): 12 µM |
| CC(C)C[C@H](NC(=O)[C@H]1O[C@@H]1C(=O)O)C(=O)NCCCCN=C(N)N [Example E-64] |  | not |  |
| CCN1C(=O)C=CC1=O [N-ethylmaleimide] |  | abolished |  |
| NC(=O)CI [iodoacetamide] |  | abolished |  |
